In patent US8580778B2, “Substituted dihydropyrazolones and their use” (Bayer Intellectual Property GmbH, priority 2008, dated 2013) one finds IC50 data, which are given here for eight compounds.

Structures are written as SMILES. Structures can show the parent of a compound that is named as a salt.

The test concerns the target HIF prolyl hydroxylase. As to the kind of experiment: Inhibition of the activity of HIF prolyl hydroxylase (VBC complex binding test). The class given is biochemical. Particulars: cell lysate containing prolyl hydroxylase. The protocol:
1.a) Inhibition of the Activity of HIF Prolyl Dydroxylase:
Hydroxylated HIF bonds specifically to the von Hippel-Lindau protein-elongin B-elongin C complex (VBC complex). This interaction occurs only if HIF is hydroxylated on a conserved prolyl radical. It is the basis for the biochemical determination of HIF prolyl hydroxylase activity. The test is carried out as described [Oehme F., Jonghaus W., Narouz-Ott L., Huetter J., Flamme I., Anal. Biochem. 330 (1), 74-80 (2004)]:
A clear 96-well microtiter plate coated with NeutrAvidin HBC (Pierce) is incubated with blocker casein for 30 minutes. The plate is then washed three times with 200 μl each time of wash buffer (50 mM Tris, pH 7.5, 100 mM NaCl, 10% (v/v) blocker casein, 0.05% (v/v) Tween 20) per well. The peptide biotin-DLDLEMLAPYIPMDDDFQL (Eurogentec, 4102 Seraing, Belgium) is added in a concentration of 400 nM in 100 μl wash buffer. This peptide serves as a substrate for the prolyl hydroxylation and is bonded to the microtiter plate. After incubation for 60 minutes, the plate is washed three times with wash buffer, incubated with 1 mM biotin in blocker casein for 30 minutes and then washed again three times with wash buffer.
To carry out the prolyl hydroxylase reaction, the peptide substrate bonded to the plate is incubated with a cell lysate containing prolyl hydroxylase for 1 to 60 minutes. The reaction takes place in 100 μl reaction buffer (20 mM Tris, pH 7.5, 5 mM KCl, 1.5 mM MgCl2, 1 μM-1 mM 2-oxoglutarate, 10 μM FeSO4, 2 mM ascorbate) at room temperature. The reaction mixture moreover contains various concentrations of the prolyl hydroxylase inhibitor to be tested. The test substance is preferably, but not exclusively, employed at concentrations of between 1 nM and 100 μM. The reaction is stopped by washing the plate three times with wash buffer.
For quantitative determination of the prolyl hydroxylation, a fusion protein which contains both thioredoxin from E. coli and the VBC complex in 80 μl bonding buffer (50 mM Tris, pH 7.5, 120 mM NaCl) is added. After 15 minutes, 10 μl of a solution of polyclonal anti-thioredoxin antibodies from rabbit in bonding buffer are added. After a further 30 minutes, 10 μl of a solution of anti-rabbit immunoglobulin coupled to horseradish peroxidase in bonding buffer are added. After incubation at room temperature for 30 minutes, the plate is washed three times with wash buffer in order to remove non-bonded VBC complex and antibodies. To determine the amount of bonded VBC complex, the plate is incubated with TMB for 15 minutes. The colour reaction is ended by addition of 100 μl 1 M sulphuric acid. The amount of bonded VBC complex is determined by measurement of the optical density at 450 nm. It is proportional to the amount of hydroxylated proline in the peptide substrate.
Alternatively, a VBC complex coupled to europium (Perkin Elmer) can be used for detection of the prolyl hydroxylation. In this case, the amount of bonded VBC complex is determined by the fluorescence with respect to time. The use of VBC complex labelled with [^35S]-methionine is moreover possible. For this, the radioactively labelled VBC complex can be prepared by in vitro transcription-translation in reticulocyte lysate.
A word on the IC50: it is the concentration needed to halve the response being measured. The compound `O=c1c(-n2ccnn2)c[nH]n1-c1cc(N2CCN(C3CCC3)CC2)ncn1` [Example 2, 2-[6-(4-Cyclobutylpiperazin-1-yl)pyrimidin-4-yl]-4-(1H-1,2,3-triazol-1-yl)-1,2-dihydro-3H-pyrazol-3-one] returned an IC50 of 880 nM.
In the case of `O=C(O)C1CN(c2cc(-n3[nH]cc(-n4ccnc4)c3=O)ncn2)C1` [Example 5, 1-{6-[4-(1H-Imidazol-1-yl)-5-oxo-2,5-dihydro-1H-pyrazol-1-yl]pyrimidin-4-yl}azetidine-3-carboxylic acid], the IC50 is 540 nM. Against the preceding compound, the IC50 is about 1.6-fold lower.
In the case of `CN(C)C1CN(c2cc(-n3[nH]cc(-n4ccnn4)c3=O)ncn2)C1` [Example 9, 2-{6-[3-(Dimethylamino)azetidin-1-yl]pyrimidin-4-yl}-4-(1H-1,2,3-triazol-1-yl)-1,2-dihydro-3H-pyrazol-3-one dihydrochloride], the IC50 was 760 nM.
`N#Cc1cn(-c2c[nH]n(-c3cc(N4CCC(F)(F)C4)ncn3)c2=O)nn1` [Example 17, 1-{2-[6-(3,3-Difluoropyrrolidin-1-yl)pyrimidin-4-yl]-3-oxo-2,3-dihydro-1H-pyrazol-4-yl}-1H-1,2,3-triazole-4-carbonitrile] returned an IC50 of 130 nM. This IC50 lies about 5.8-fold lower than the previous one.
Next, `N#Cc1cn(-c2c[nH]n(-c3cc(N4CC(F)(F)C4)ncn3)c2=O)nn1` [Example 21, 1-{2-[6-(3,3-Difluoroazetidin-1-yl)pyrimidin-4-yl]-3-oxo-2,3-dihydro-1H-pyrazol-4-yl}-1H-1,2,3-triazole-4-carbonitrile]: 70 nM; `N#Cc1cn(-c2c[nH]n(-c3cc(N4CCCOCC4)ncn3)c2=O)cn1` [Example 25, 1-{2-[6-(1,4-Oxazepan-4-yl)pyrimidin-4-yl]-3-oxo-2,3-dihydro-1H-pyrazol-4-yl}-1H-imidazole-4-carbonitrile]: 180 nM; `N#Cc1cn(-c2c[nH]n(-c3cc(N4CCCOCC4)ncn3)c2=O)nn1` [Example 26, 1-{2-[6-(1,4-Oxazepan-4-yl)pyrimidin-4-yl]-3-oxo-2,3-dihydro-1H-pyrazol-4-yl}-1H-1,2,3-triazole-4-carbonitrile]: 380 nM.
In the case of `N#Cc1cn(-c2c[nH]n(-c3cc(N4CCCCO4)ncn3)c2=O)nn1` [Example 29, 1-{2-[6-(1,2-Oxazinan-2-yl)pyrimidin-4-yl]-3-oxo-2,3-dihydro-1H-pyrazol-4-yl}-1H-1,2,3-triazole-4-carbonitrile], the IC50 was 170 nM.
